From patent US9880171B2, “iASPP phosphorylation and metastatic potential” (LUDWIG INSTITUTE FOR CANCER RESEARCH LTD., priority 2012, dated 2018) come the findings set out here.

“Also recorded” adds a separate entry of the source.

Test [1] concerns iASPP modification in H1299 cells. The test is described as follows: nocodazole-induced iASPP modification in H1299 cells, G2/M kinase inhibitor panel (immunoblotting). Format: cell-based, human. The note with it: panel of 15 G2/M kinase inhibitors, 2-10 μM, 10 μM nocodazole overnight. On the procedure: FIG. 12. […] FIG. 12A. […] FIG. 12B. […] FIG. 12C.
FIG. 13. FIG. 13A. […] FIG. 13B.
FIG. 20. […] FIG. 20A. […] Bar=20 μm.
For WB, cells were lysed in buffer containing 8 M urea, 1 M thiourea, 0.5% CHAPS, 50 mM DTT, and 24 mM spermine. A total of 40 μg of protein extract was loaded per lane into SDS-polyacrylamide gels. Gels were transferred onto nitrocellulose membrane (Protran) and the resulting blots incubated first with primary antibody overnight at 4° C. and then with the appropriate secondary horseradish peroxidize-conjugated antibody (Dako). The results were visualized by enhanced chemiluminescent detection (Amersham Biosciences) using X-ray film (Fujifilm).

In test [2] the test system is B16 melanoma cells. As to the kind of experiment: apoptosis by Sub-G1 FACS analysis, Example 10, B16 cells. It is filed as cell-based, mouse. On the procedure: (§1) FIG. 20. Restoring p53 by inhibiting mdm2 and iASPP suppresses melanoma growth in vitro and in vivo. FIG. 20A. H1299 cells were treated with DMSO or 10 μM nocodazole in the presence or absence of 2 or 10 μM of mitosis-related kinase inhibitors as indicated. […] FIG. 20B. Left panel: representative p53 level after Nutlin3 treatment for 24 hours in a variety of cells. Right bar graphs show the sub-G1 proportion of WM278 after treatment as that described in FIG. 19B (in upper panel, 10 μM and 20 μM Nutlin3 were used in parallel for comparison). From left to right of the upper right bar graph of FIG. 20B, the bars correspond to DMSO, Nut and JNJ+Nut, respectively. From left to right of the bottom bar graph of FIG. 20B, the bars correspond to DMSO, JNJ, Nut and JNJ+Nut, respectively. FIG. 20C. Me300, SK-MEL37, and B16 cells were treated as above (For B16 panel, 10 μM Nutlin3 was used) and sub-G1 proportion was analyzed. In (B) and (C), the bar graphs (mean±SD) were derived from three independent experiments. *p<0.05. FIG. 20D. Left panel: untreated B16 cells were subcutaneously injected into mice at day 1. […] Compound administration and tumor size measurement were repeated every two days from day 7 onwards. Bar graphs are shown as mean±SD (*p<0.05, n=6). FIG. 20E. […]
FIG. 22. […] Me300, SK-MEL37, and B16 cells were treated as described herein and sub-G1 cells were analyzed as described herein.

In test [3] the test system is iASPP modification and p53-iASPP binding in WM278 cells. The test is described as follows: iASPP modification and p53 co-immunoprecipitation in WM278 cells. Format: cell-based, human. Here is the method: For WB, cells were lysed in buffer containing 8 M urea, 1 M thiourea, 0.5% CHAPS, 50 mM DTT, and 24 mM spermine. A total of 40 μg of protein extract was loaded per lane into SDS-polyacrylamide gels. Gels were transferred onto nitrocellulose membrane (Protran) and the resulting blots incubated first with primary antibody overnight at 4° C. and then with the appropriate secondary horseradish peroxidize-conjugated antibody (Dako). The results were visualized by enhanced chemiluminescent detection (Amersham Biosciences) using X-ray film (Fujifilm). For cell lysate immunoprecipitation, cells were dissolved in NP40 buffer (50 mM Tris-HCl pH 8.0, 150 mM NaCl, 1% NP-40) with protease inhibitor cocktail mix (Roche Diagnostics). Cells were further thoroughly broken by ultrasonication, followed by spinning for 1 hour. Achieved suspension was adjusted to 1-2 mg/ml using NP40 buffer and incubated with 20 μl nickel beads, glutathione beads, or protein A beads (with 2 μg required antibody) for 2 h at room temperature. The beads were washed for four times with NP40 buffer, boiled for 5 min in Laemmli sample buffer, and applied for Western blotting. For pure protein immunoprecipitation, 5-10 μg purified proteins were mixed in NP40 buffer with 1 mg/ml BSA for 2 h at room temperature.

For test [4], the system named is WM278, Me300 and SK-MEL37 melanoma cell lines. The test is described as follows: clonogenic survival / colony formation assay, Example 8.
Protocol: (§2) Cells were transfected with siRNA as shown and pre-seeded on 6 well plates ON, 0.3 μM cyclin B1/cdk1 inhibitors K00616a were then added for 48 hours to block iASPP modification. Cells were then treated with 0.3 μM K00616a, 20 μM nutlin3, or combinations of these drugs for another 72 hours. Cells were collected and cell cycle status, growth potential, and protein expression pattern were then determined by PI staining/FACS analysis, colony formation assay, and WB, respectively. […] Cells were pre-seeded on 6 well plates for overnight, 0.3 μM cyclin B1/cdk1 inhibitors K00616a were then added for 48 hours to block iASPP modification. Cells were then treated with 0.3 μM K00616a, 20 μM nutlin3, 1 μM PLX4032, or combinations of these drug for another 72 hours. Cells were collected and cell cycle status, growth potential, and protein expression pattern were then determined by PI staining/FACS analysis, colony formation assay, and WB, respectively.
After drugs treatment, cells were digested, counted, and seed in 6-well plates (100, 1 000, 10 000 cells/well). […]
The ability of K00616a to reactivate wild type p53 function in melanoma cells was tested in three melanoma cell lines that all express B-RAFV600E. […] Wild type p53 function was measured by a p53-dependent apoptosis assay, detecting the percentage of cells containing subG1 DNA content and growth suppression in a clonogenic survival assay.
Test [5] deals with p53 expression in B16 cells. As to the kind of experiment: p53 level after Nutlin3 treatment, B16 cells. Format: cell-based, mouse. On the procedure: as §1, with “20E. Lower panels show representative images of isolated tumors. Right panel: representative H & E staining in B16 tumor section. Bar=20 μm.” for “20E.”
The test system of test [6] is p53 expression in SK-MEL37, WM278 and Me300 cells. As to the kind of experiment: p53 level after Nutlin3 treatment, human melanoma cells. It is filed as cell-based. On the procedure:
as §1, with “20E. Lower panels show representative images of isolated tumors. Right panel: representative H & E staining in B16 tumor section. Bar=20 μm.” for “20E.”

The subject of test [7] is WM278, Me300 and SK-MEL37 melanoma cell lines. The test is described as follows: p53-dependent apoptosis assay (subG1 DNA content, PI/FACS), Example 8. It is filed as cell-based, human. The conditions noted are these: 0.3 μM K00616a, 20 μM nutlin3, 1 μM PLX4032, agent alone, 72 hours.
Protocol: as §2
Cells were harvested, washed and fixed in ice-cold 70% EtOH. […] After 30 min RT incubation cells were analyzed by flow cytometry.
WM278 and Me300 also express wild type p53, whereas SK-MEL37 expresses mutant p53. […] Wild type p53 function was measured by a p53-dependent apoptosis assay, detecting the percentage of cells containing subG1 DNA content and growth suppression in a clonogenic survival assay.

With `Nc1nc(Nc2ccc(S(N)(=O)=O)cc2)nn1C(=O)c1c(F)cccc1F` [JNJ-7706621], the “prevention of nocodazole-induced iASPP modification” value in test [1] is “most potent inhibitor of iASPP modification”. Further, the “increase in Nutlin3-induced apoptosis” value in test [2] is 3-4 fold. In addition, the “amount of modified iASPP” value in test [3] (0.4 μM JNJ or 10 μM nocodazole overnight) is listed as “reduced the amount of modified iASPP”. Further, the “binding of iASPP to p53 (co-immunoprecipitation)” value in test [3] (0.4 μM JNJ, listed as JNJ) is listed as “failed to co-immunoprecipitate iASPP; also recorded: able to prevent iASPP from binding to p53”.
As to `COc1ccc(C2=N[C@@H](c3ccc(Cl)cc3)[C@@H](c3ccc(Cl)cc3)N2C(=O)N2CCNC(=O)C2)c(OC(C)C)c1` [Nutlin3], the “growth suppression (colonies)” value in test [4] (WM278, Me300 and SK-MEL37, agent alone) is “limited”. In test [4] (added alone to PLX4032), the “effect on the growth suppression effects of PLX4032” value is reported as “minimal effect”. For the same molecule, the “optimal concentration of Nutlin3 to induce maximal p53 expression” value was found to be 10 µM in test [5]; 2 µM in test [6] (SK-MEL37); 20 µM in test [6] (WM278 and Me300 cells). In addition, the “apoptotic cell death (subG1)” value in test [7] is listed as “very low rates of apoptotic cell death”.
